18 compounds from ChEMBL document CHEMBL1151559, “Pyridine and piperidine derivatives as inhibitors of dihydrodipicolinic acid synthase, a key enzyme in the diaminopimelate pathway to l-lysine” (Bioorg Med Chem Lett, 1994) can be followed below.

Test [1] addresses T1, Dihydrodipicolinate synthase (Streptomyces coelicolor (strain ATCC BAA-471 / A3(2) / M145), UniProt Q93RY0).
T1 sequence (Q93RY0 whole entry): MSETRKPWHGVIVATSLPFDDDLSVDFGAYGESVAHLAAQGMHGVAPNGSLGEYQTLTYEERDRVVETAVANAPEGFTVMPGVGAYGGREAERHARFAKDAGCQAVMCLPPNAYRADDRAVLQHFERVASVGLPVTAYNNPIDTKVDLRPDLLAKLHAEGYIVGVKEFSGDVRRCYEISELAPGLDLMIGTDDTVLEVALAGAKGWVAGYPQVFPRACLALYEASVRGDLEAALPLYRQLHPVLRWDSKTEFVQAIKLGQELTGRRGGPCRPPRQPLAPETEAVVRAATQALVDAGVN
Nature of the test: In vitro inhibition of dihydrodipicolinic acid synthase. The format is functional, Escherichia coli.

For test [2] the target is unchanged. Nature of the test: Inhibitory activity against dihydrodipicolinic acid synthase. The format is functional, Escherichia coli.

pIC50, pKi: −log10 of the molar value. “And” between values parts separate entries of the source, which are not always exact repeats. Equal entries are not always repeated.

A word on the pIC50: it is the IC50 on a negative log10 scale, so that one unit is a factor of ten. The low end stands for a high IC50, the high end for a low IC50. In the case of `N#C[C@@H]1CCC[C@H](C#N)N1`, in test [1], the negative logarithm of the IC50 (pIC50) is 2.13.

Consider `O=C(O)c1cccc(C(=O)O)n1` [DIPICOLINIC ACID], for which the pIC50 in test [1] was 3.40.

Take `c1cc(-c2nnn[nH]2)nc(-c2nnn[nH]2)c1`: the negative logarithm of the IC50 (pIC50) in test [1] is 3.60.

What is called pKi is the negative decadic logarithm of the Ki, by convention in mol/L. Lower therefore signals a large Ki. Compound `N#C[C@@H]1CCC[C@@H](C#N)N1` showed a pKi in test [2] of 2.20.

In test [1], `O=C(O)c1cccc(C(=O)O)[n+]1[O-]` gave a pIC50 of 3.70.

For `COC(=O)[C@@H]1CCC[C@@H](C(=O)OC)N1`, the pIC50 in test [1] was 2.28.

As for `COC(=O)[C@H]1CCC[C@@H](C(=O)OC)N1N=O`, in test [1], the negative-log IC50 (pIC50) is 2.21 and 3.15.

Regarding `O=C(O)c1cccc[n+]1[O-]`, the pIC50 in test [1] is 3.10.

On to `O=NN1CCCC1C(=O)O` (stereo not drawn), for which the pIC50 in test [1] is 2.12.

`COC(=O)[C@@H]1CCC[C@@H](C(=O)OC)N1C` showed a pIC50 in test [1] of 3.15.

In turn, `O=NN1[C@@H](C(=O)O)CCC[C@H]1C(=O)O` gave a pIC50 in test [1] of 2.64.

As to `O=C(O)c1ccccn1` [2-PICOLINIC ACID], in test [1], the pIC50 was 3.00.

For the compound `COC(=O)c1cccc(C(=O)OC)n1`, the pIC50 in test [1] was 3.15.

As for `N=C[C@@H]1CCC[C@H](C=N)N1`, the pIC50 in test [1] was 2.14.

In turn, `COC(=N)c1cccc(C(=N)OC)n1` gave a pIC50 in test [1] of 3.70.

In test [1], `O=NN1CCCCC1C(=O)O` (stereo not drawn) had a pIC50 of 2.46.

For the compound `COC(=O)[C@@H]1CCC[C@H](C(=O)OC)N1`, the negative logarithm of the IC50 (pIC50) in test [1] is 3.15.

On to `N#Cc1cccc(C#N)n1`, for which, in test [1], the pIC50 is 3.52.
